Tests used:
A549 [1] = experiment: cells; details: Homo sapiens, A549, 72 h
Description: Antiproliferative activity against human A549 cells after 72 hrs by MTT assay

HT-29 [2] = experiment: cells; details: Homo sapiens, HT-29, 72 h
NCI-H460 [3] = experiment: Antiproliferative activity against human NCI-H460 cells after 72 hrs by MTT assay; format: functional, cell-based; details: NCI-H460, 72 h
U-87 MG = experiment: Antiproliferative activity against human U87MG cells after 72 hrs by MTT assay; format: functional, cell-based, U-87MG ATCC
NCI-H460 [4] = experiment: Potency index, ratio of foretinib IC50 to compound IC50 for antiproliferative activity against human NCI-H460 cells; format: functional
[5] = target: Mast/stem cell growth factor receptor Kit (Homo sapiens, UniProt P10721); experiment: Inhibition of cKIT (unknown origin) using poly(Glu, Tyr) 4:1 as substrate after 30 mins by HTRF assay
Chain of Mast/stem cell growth factor receptor Kit (P10721 whole entry): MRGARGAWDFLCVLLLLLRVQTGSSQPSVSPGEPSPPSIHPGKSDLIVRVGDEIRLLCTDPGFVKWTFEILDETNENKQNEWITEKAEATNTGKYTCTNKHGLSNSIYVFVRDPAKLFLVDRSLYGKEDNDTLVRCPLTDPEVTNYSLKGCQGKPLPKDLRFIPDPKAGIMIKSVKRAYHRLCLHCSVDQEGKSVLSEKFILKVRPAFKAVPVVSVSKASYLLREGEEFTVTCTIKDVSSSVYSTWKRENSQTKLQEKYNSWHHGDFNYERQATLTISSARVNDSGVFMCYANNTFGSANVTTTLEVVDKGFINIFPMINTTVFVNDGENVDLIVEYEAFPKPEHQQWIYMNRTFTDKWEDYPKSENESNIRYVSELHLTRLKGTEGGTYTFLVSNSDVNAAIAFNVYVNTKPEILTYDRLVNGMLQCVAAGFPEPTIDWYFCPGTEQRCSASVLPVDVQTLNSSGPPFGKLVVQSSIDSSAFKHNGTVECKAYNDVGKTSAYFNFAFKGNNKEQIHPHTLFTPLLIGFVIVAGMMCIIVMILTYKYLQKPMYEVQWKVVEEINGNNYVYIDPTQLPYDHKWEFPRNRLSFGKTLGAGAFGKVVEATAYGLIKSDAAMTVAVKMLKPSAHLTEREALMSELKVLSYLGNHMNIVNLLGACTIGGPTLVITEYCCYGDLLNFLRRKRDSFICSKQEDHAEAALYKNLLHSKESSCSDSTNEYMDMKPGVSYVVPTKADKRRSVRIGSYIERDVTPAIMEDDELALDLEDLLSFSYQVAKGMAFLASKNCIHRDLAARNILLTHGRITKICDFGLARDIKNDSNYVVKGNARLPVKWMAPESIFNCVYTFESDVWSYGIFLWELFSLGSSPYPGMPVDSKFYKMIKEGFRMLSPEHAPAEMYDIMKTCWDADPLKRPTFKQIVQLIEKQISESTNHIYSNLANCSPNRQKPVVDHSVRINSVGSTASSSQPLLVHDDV

[6] = target: T1, Receptor-type tyrosine-protein kinase FLT3 (Homo sapiens, UniProt P36888); experiment: Inhibition of Flt-3 (unknown origin) using poly(Glu, Tyr) 4:1 as substrate after 30 mins by HTRF assay
T1 sequence (P36888 whole entry): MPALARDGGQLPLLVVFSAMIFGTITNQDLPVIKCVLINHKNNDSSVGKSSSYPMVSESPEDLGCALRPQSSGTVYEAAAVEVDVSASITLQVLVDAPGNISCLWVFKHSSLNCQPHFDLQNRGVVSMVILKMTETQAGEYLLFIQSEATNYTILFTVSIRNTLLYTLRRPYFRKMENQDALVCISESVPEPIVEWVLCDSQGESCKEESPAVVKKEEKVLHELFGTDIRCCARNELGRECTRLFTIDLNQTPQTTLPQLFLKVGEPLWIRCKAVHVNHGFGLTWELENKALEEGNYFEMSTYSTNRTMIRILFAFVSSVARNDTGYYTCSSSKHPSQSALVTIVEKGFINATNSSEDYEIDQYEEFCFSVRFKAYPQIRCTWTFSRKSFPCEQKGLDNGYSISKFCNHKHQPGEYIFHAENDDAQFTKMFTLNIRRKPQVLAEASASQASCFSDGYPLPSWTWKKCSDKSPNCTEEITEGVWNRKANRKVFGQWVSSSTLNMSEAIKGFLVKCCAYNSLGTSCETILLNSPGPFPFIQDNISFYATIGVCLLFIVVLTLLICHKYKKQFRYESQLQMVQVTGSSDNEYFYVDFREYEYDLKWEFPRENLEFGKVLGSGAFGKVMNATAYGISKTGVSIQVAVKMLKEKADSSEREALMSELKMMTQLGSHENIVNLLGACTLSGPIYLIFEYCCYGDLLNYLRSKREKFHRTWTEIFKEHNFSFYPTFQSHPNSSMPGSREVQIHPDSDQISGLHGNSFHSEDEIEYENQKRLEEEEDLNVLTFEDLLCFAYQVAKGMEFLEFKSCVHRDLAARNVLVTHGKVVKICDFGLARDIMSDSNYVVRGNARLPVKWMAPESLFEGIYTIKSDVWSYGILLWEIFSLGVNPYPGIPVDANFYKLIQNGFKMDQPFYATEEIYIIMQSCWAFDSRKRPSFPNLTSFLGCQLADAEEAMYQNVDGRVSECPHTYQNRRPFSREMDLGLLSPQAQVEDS

[7] = target: Vascular endothelial growth factor receptor 2 (Homo sapiens, UniProt P35968); experiment: Inhibition of VEGFR2 (unknown origin) using poly(Glu, Tyr) 4:1 as substrate after 30 mins by HTRF assay
Chain of Vascular endothelial growth factor receptor 2 (P35968 whole entry): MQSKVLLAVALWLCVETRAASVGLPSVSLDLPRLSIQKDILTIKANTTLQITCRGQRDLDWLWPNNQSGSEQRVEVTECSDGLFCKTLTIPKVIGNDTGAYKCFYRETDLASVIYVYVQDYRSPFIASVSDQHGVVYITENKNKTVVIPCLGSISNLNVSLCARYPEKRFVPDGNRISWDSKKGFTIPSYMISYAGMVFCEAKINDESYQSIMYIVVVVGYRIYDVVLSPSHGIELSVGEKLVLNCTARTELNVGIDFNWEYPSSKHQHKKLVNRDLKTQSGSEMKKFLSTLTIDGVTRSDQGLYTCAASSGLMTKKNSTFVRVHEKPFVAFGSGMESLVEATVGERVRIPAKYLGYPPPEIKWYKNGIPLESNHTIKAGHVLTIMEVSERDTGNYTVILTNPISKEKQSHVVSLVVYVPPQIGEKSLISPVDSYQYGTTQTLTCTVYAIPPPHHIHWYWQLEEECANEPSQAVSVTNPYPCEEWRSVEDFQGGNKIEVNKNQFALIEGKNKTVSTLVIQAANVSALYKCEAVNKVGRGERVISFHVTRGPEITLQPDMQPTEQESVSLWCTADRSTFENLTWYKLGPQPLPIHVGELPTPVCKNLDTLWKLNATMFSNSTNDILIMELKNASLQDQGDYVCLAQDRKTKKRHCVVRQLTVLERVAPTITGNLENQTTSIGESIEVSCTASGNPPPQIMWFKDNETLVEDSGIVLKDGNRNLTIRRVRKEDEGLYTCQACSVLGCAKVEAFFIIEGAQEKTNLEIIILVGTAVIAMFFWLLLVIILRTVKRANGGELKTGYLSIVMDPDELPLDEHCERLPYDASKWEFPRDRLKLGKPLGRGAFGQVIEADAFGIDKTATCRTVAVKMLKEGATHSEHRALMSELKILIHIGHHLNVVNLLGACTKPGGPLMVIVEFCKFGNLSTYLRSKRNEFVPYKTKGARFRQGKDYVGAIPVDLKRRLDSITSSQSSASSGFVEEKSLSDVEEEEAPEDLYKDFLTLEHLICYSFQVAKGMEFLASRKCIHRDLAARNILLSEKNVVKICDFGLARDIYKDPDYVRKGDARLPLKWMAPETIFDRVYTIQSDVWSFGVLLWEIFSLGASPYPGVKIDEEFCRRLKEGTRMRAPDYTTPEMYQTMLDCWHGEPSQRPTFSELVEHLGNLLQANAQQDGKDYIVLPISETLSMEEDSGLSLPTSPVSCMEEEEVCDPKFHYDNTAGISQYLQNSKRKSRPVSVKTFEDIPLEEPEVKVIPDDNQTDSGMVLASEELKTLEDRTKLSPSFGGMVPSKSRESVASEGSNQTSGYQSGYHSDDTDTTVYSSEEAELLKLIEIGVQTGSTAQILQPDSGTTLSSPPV

[8] = target: Hepatocyte growth factor receptor (Homo sapiens, UniProt P08581); experiment: Inhibition of cMET (unknown origin) using poly(Glu,Tyr) 4:1 substrate after 30 mins by HTFR analysis
Chain of Hepatocyte growth factor receptor (P08581 whole entry): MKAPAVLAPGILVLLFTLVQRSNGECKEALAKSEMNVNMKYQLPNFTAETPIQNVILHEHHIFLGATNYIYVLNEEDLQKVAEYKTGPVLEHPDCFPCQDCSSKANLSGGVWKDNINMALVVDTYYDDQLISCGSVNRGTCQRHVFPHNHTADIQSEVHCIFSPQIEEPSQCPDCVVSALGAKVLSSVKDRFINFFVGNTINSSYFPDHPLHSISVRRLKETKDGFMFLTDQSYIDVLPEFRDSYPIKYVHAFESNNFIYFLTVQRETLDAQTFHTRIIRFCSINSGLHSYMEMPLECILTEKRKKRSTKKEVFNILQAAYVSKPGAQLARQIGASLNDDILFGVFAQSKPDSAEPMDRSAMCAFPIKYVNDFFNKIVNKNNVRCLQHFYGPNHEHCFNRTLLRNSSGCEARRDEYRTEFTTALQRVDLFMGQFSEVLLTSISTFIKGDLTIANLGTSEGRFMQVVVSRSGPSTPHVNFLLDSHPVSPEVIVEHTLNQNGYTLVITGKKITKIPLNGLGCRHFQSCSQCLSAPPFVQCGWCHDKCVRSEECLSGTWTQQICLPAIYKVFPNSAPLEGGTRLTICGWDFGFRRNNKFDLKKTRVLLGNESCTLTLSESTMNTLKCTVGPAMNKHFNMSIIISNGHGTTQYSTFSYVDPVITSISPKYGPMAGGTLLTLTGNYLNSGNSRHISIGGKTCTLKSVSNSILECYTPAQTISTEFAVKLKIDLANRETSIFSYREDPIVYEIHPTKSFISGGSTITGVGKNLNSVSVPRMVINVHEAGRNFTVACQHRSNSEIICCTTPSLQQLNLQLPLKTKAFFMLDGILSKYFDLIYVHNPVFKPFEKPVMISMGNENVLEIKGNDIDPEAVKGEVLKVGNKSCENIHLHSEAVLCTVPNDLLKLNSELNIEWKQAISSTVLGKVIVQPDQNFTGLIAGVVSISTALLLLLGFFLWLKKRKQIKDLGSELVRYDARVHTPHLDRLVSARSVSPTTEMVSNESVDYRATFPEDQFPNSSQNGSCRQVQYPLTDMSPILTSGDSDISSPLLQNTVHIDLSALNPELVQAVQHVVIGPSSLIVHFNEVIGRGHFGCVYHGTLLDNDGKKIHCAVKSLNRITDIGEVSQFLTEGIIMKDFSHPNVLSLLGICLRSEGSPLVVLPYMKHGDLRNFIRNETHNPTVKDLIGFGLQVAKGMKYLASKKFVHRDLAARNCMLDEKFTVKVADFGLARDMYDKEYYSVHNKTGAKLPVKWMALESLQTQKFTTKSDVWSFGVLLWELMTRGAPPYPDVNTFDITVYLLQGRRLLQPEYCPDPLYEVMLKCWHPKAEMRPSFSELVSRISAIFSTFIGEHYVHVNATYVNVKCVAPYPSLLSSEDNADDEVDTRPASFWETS

[9] = target: Platelet-derived growth factor receptor beta (Homo sapiens, UniProt P09619); experiment: Inhibition of PDGFRbeta (unknown origin) using poly(Glu, Tyr) 4:1 as substrate after 30 mins by HTRF assay
HT-29 [10] = experiment: Potency index, ratio of foretinib IC50 to compound IC50 for antiproliferative activity against human HT-29 cells; format: functional
A549 [11] = experiment: Potency index, ratio of foretinib IC50 to compound IC50 for antiproliferative activity against human A549 cells; format: functional
[12] = target: Epidermal growth factor receptor (Homo sapiens, UniProt P00533); experiment: Inhibition of EGFR (unknown origin) using poly(Glu, Tyr) 4:1 as substrate after 30 mins by HTRF assay
Chain of Epidermal growth factor receptor (P00533 whole entry): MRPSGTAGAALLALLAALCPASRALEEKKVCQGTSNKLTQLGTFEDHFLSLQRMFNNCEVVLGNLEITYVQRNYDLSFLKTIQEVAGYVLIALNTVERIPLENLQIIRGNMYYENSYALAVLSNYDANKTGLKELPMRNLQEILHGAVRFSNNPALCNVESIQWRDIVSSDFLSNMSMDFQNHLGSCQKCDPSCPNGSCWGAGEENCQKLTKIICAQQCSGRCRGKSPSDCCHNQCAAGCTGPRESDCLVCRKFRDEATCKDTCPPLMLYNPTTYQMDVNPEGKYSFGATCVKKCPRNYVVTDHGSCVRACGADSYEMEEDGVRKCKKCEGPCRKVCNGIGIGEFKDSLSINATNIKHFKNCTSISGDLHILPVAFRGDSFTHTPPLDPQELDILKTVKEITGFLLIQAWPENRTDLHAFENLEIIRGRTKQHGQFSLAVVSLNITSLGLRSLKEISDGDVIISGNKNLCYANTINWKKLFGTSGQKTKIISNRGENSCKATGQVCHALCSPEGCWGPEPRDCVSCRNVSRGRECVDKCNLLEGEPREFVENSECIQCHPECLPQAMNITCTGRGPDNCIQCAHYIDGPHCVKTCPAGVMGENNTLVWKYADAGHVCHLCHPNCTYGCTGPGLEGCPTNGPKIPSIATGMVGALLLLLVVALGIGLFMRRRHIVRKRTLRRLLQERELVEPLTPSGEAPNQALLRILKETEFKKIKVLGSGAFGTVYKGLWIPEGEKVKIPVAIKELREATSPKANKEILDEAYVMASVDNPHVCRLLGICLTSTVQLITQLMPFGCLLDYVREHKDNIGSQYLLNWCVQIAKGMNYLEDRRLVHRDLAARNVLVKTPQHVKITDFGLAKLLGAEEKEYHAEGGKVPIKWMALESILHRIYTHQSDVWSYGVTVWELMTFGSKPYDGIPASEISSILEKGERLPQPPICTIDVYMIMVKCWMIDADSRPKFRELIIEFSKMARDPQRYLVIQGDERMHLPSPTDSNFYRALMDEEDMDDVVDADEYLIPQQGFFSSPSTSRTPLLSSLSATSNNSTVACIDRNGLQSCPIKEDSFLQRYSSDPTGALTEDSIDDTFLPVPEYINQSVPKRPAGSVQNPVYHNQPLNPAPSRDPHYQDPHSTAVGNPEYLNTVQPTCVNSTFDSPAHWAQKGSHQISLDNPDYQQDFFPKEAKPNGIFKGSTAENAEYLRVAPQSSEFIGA

Row | SMILES | IC50 (A549 [1]) [nM] | IC50 (HT-29 [2]) [nM] | IC50 (NCI-H460 [3]) [nM] | IC50 (U-87 MG) [nM] | further results
1 | O=C(Nc1ccc(Oc2ccnc3[nH]ccc23)cc1)c1cc2cccnc2n(-c2ccc(F)c(Cl)c2)c1=O | 680 | 560 |  |  | 
2 | Cn1ccc2c(Oc3ccc(NC(=O)c4cc5cccnc5n(-c5ccc(Br)cc5)c4=O)cc3)ccnc21 | 680 | 690 |  |  | 
3 | O=C(Nc1ccc(Oc2ccnc3[nH]ccc23)c(F)c1)c1cc2cccnc2n(-c2ccccc2)c1=O | 190 | 160 | 180 | 1260 | 
4 | COc1ccc(-n2c(=O)c(C(=O)Nc3ccc(Oc4ccnc5c4ccn5C)c(F)c3)cc3cccnc32)cc1 | 2750 | 1290 |  |  | 
5 | Cn1ccc2c(Oc3ccc(NC(=O)c4cc5cccnc5n(-c5ccccc5)c4=O)cc3)ccnc21 | 850 | 620 | 560 | 5030 | 
6 | Cn1ccc2c(Oc3ccc(NC(=O)c4cc5cccnc5n(-c5ccc(C(F)(F)F)cc5Cl)c4=O)cc3F)ccnc21 | 3530 | 5830 | 6010 | 10200 | 
7 | O=C(Nc1ccc(Oc2ccnc3[nH]ccc23)cc1)c1cc2cccnc2n(-c2ccc(F)cc2)c1=O | 210 | 160 | 190 | 1360 | 
8 | COc1ccc(-n2c(=O)c(C(=O)Nc3ccc(Oc4ccnc5[nH]ccc45)c(F)c3)cc3cccnc32)cc1 | 610 | 540 |  |  | 
9 | Cn1ccc2c(Oc3ccc(NC(=O)c4cc5cccnc5n(-c5ccc(F)c(Cl)c5)c4=O)cc3)ccnc21 | 820 | 1210 | 1210 | 2350 | 
10 | O=C(Nc1ccc(Oc2ccnc3[nH]ccc23)c(F)c1)c1cc2cccnc2n(-c2ccc(Cl)cc2)c1=O | 110 | 82 |  |  | 
11 | Cn1ccc2c(Oc3ccc(NC(=O)c4cc5cccnc5n(-c5ccc(Cl)cc5)c4=O)cc3F)ccnc21 | 350 | 220 |  |  | 
12 | Cn1ccc2c(Oc3ccc(NC(=O)c4cc5cccnc5n(-c5ccc(Cl)cc5)c4=O)cc3)ccnc21 | 630 | 730 |  |  | 
13 | O=C(Nc1ccc(Oc2ccnc3[nH]ccc23)cc1)c1cc2cccnc2n(-c2ccccc2)c1=O | 360 | 290 | 380 | 1580 | 
14 | Cn1ccc2c(Oc3ccc(NC(=O)c4cc5cccnc5n(-c5ccc(F)c(Cl)c5)c4=O)cc3F)ccnc21 | 3560 | 2460 |  |  | 
15 | COc1ccc(-n2c(=O)c(C(=O)Nc3ccc(Oc4ccnc5[nH]ccc45)cc3)cc3cccnc32)cc1 | 930 | 1260 | 960 | 2350 | 
16 | Cn1ccc2c(Oc3ccc(NC(=O)c4cc5cccnc5n(-c5ccccc5)c4=O)cc3F)ccnc21 | 430 | 510 | 550 | 3590 | 

Row | SMILES | IC50 (A549 [1]) [nM] | IC50 (HT-29 [2]) [nM] | IC50 (NCI-H460 [3]) [nM] | IC50 (U-87 MG) [nM] | further results
17 | COc1ccc(-n2c(=O)c(C(=O)Nc3ccc(Oc4ccnc5c4ccn5C)cc3)cc3cccnc32)cc1 | 3460 | 2050 | 1920 | 5150 | 
18 | O=C(Nc1ccc(Oc2ccnc3[nH]ccc23)cc1)c1cc2cccnc2n(-c2ccc(C(F)(F)F)cc2Cl)c1=O | 3230 | 2160 | 1950 | 6030 | 
19 | O=C(Nc1ccc(Oc2ccnc3[nH]ccc23)c(F)c1)c1cc2cccnc2n(-c2ccc(F)c(Cl)c2)c1=O | 630 | 310 | 1050 | 5230 | 
20 | Cn1ccc2c(Oc3ccc(NC(=O)c4cc5cccnc5n(-c5ccc(Br)cc5)c4=O)cc3F)ccnc21 | 390 | 330 | 420 | 2580 | 
21 | O=C(Nc1ccc(Oc2ccnc3[nH]ccc23)cc1)c1cc2cccnc2n(-c2ccc(Cl)cc2)c1=O | 290 | 280 | 290 | 3370 | 
22 | O=C(Nc1ccc(Oc2ccnc3[nH]ccc23)c(F)c1)c1cc2cccnc2n(-c2ccc(Br)cc2)c1=O | 210 | 120 | 260 | 1510 | 
23 | O=C(Nc1ccc(Oc2ccnc3[nH]ccc23)cc1)c1cc2cccnc2n(-c2ccc(Br)cc2F)c1=O | 1570 | 2360 |  |  | 
24 | Cn1ccc2c(Oc3ccc(NC(=O)c4cc5cccnc5n(-c5ccc(Br)cc5F)c4=O)cc3)ccnc21 | 1630 | 2580 |  |  | 
25 | O=C(Nc1ccc(Oc2ccnc3[nH]ccc23)c(F)c1)c1cc2cccnc2n(-c2ccc(F)cc2)c1=O | 62 | 36 | 87 | 620 | Ratio IC50 (NCI-H460 [4]): 3.2; IC50 [5]: 684 nM; IC50 [6]: 1.16 nM; IC50 [7]: 152 nM; IC50 [8]: 1.92 nM; IC50 [9]: 1.81 nM; Ratio IC50 (HT-29 [10]): 7.2; Ratio IC50 (A549 [11]): 5.2; IC50 [12]: 633 nM
26 | O=C(Nc1ccc(Oc2ccnc3[nH]ccc23)c(F)c1)c1cc2cccnc2n(-c2ccc(C(F)(F)F)cc2Cl)c1=O | 1020 | 1360 |  |  | 
27 | Cn1ccc2c(Oc3ccc(NC(=O)c4cc5cccnc5n(-c5ccc(F)cc5)c4=O)cc3F)ccnc21 | 280 | 160 | 250 | 1320 | 
28 | O=C(Nc1ccc(Oc2ccnc3[nH]ccc23)cc1)c1cc2cccnc2n(-c2ccc(Br)cc2)c1=O | 280 | 270 |  |  | 
29 | Cn1ccc2c(Oc3ccc(NC(=O)c4cc5cccnc5n(-c5ccc(F)cc5)c4=O)cc3)ccnc21 | 210 | 250 | 260 | 2120 | 
30 | Cn1ccc2c(Oc3ccc(NC(=O)c4cc5cccnc5n(-c5ccc(C(F)(F)F)cc5Cl)c4=O)cc3)ccnc21 | 8250 | 6050 | 6950 | 12600 | 
31 | Cn1ccc2c(Oc3ccc(NC(=O)c4cc5cccnc5n(-c5ccc(Br)cc5F)c4=O)cc3F)ccnc21 | 2690 | 3290 | 3150 | 6470 | 
32 | O=C(Nc1ccc(Oc2ccnc3[nH]ccc23)c(F)c1)c1cc2cccnc2n(-c2ccc(Br)cc2F)c1=O | 460 | 820 |  |  | 
